Source: patent US20160039825A1 (BIOGEN MA INC., priority 2013, published 2016)
pIC50: −log10 of the molar value.

Target: T1, Human ATX protein (Homo sapiens, UniProt Q13822)
T1 construct: made in house
Assay: Autotaxin (ATX) assay, FRET with FS-3 substrate
Assay type: biochemical
Details: upper bound bins (no greater than 100, 250 or 500 nM); FS-3 2 μM, ATX 1.0 μg/mL
Excerpt: ATX (Autotaxin) is a 125 KDa glycoprotein with lysophospholipase D (LPLD) activity that generates the bioactive lipid lysophosphatidic acid (LPA) from lysophosphatidylcholine (LPC). The ATX biochemical assay utilizes a FRET (fluorescence resonance energy transfer) technology platform. The fluorescence signal of FRET substrate FS-3 is quenched due to intra-molecular FRET of a fluorophore to a non-fluorescing quencher (Ferguson, C. G., et al., Org Lett. 2006 May 11; 8(10): 2023-2026, which is incorporated by reference in its entirety). ATX catalyzes the hydrolysis of the substrate which separates the dabsyl quencher from the fluorescein reporter, which becomes fluorescent. The reaction is monitored by a SpectraMax M5 (Molecular Devices, Sunnyvale, Calif.) with at excitation wavelength 485 nm and emission wavelength […].
Fatty acid free-BSA (Sigma A8806): 10 mg/mL in H2O, stored at 4° C.
2×ATX assay buffer: 100 mM Tris, 280 mM NaCl, 10 mM KCl, 2 mM CaCl2, 2 mM MgCl2, pH 7.4.
Human ATX protein: expressed and purified in house. Stored at −80° C.
Substrate FS-3 (Echelon, L-2000): 100 μg in 77.74 μL H2O (1 mM stock), stored at −20° C.
384-well flat bottom plates—Corning #3575.
Compound dilution—All compounds were provided at 10 mM in 100% DMSO. In the first well, 2 μL of 10 mM compound was added to 78 μL of DMSO (1:40 dilution). In subsequent wells 3-fold dilution (total 10 dilutions) were performed.
1×ATX assay buffer was made up with a final concentration of 1 mg/mL fatty acid free-BSA using 2×ATX assay buffer, 10 mg/ml fatty acid free-BSA and ddH2O.
ATX protein was diluted with 1×ATX assay buffer to a concentration of 1.32 μg/mL (1.32×). 38 μL was added per well to the assay plate. The final concentration of ATX in the reaction as 1.0 μg/mL.
2 μL per well of compounds was transferred to provide the desired concentration. The plate was centrifuged, then incubated at room temperature for 30 minutes on the shaker.
FS-3 was diluted with 1×ATX assay buffer to a concentration of FS-3 of 10 μM (5×). Then, 10 μL was added per well to the assay plate. The final concentration of FS-3 in the reaction was 2 μM. The plate was centrifuged. The plate was kept shaking at room temperature for 2 hours. Because FS-3 substrate is light sensitive, plates were kept covered and protected from light.
Fluorescence was measured using SpectraMax M5 (excitation at 485 nm/emission at 538 nm, top read).

| SMILES | pIC50 |
| --- | --- |
| O=C(NC1CCCC1)c1cc2n(n1)CCCN(C(=O)OCc1cc(Cl)cc(Cl)c1)C2 [Example 16, 3,5-Dichlorobenzyl 2-(cyclopentylcarbamoyl)-7,8-dihydro-4H-pyrazolo[1,5-a][1,4]diazepine-5(6H)-carboxylate] | ≥ 7.00 |
| O=C(NC1CCCCC1)c1cc2n(n1)CCCN(C(=O)OCc1cc(Cl)cc(Cl)c1)C2 [Example 17, 3,5-Dichlorobenzyl 2-(cyclohexylcarbamoyl)-7,8-dihydro-4H-pyrazolo[1,5-a][1,4]diazepine-5(6H)-carboxylate] | ≥ 7.00 |
| CCNC(=O)c1cc2n(n1)CCCN(C(=O)OCc1cc(Cl)cc(Cl)c1)C2 [Example 29, 3,5-Dichlorobenzyl 2-(ethylcarbamoyl)-7,8-dihydro-4H-pyrazolo[1,5-a][1,4]diazepine-5(6H)-carboxylate] | ≥ 7.00 |
| O=C(OCc1cc(C(F)(F)F)cc(C(F)(F)F)c1)N1CCCn2nc(C(=O)N3CCC(O)CC3)cc2C1 [Example 31, 3,5-Bis(trifluoromethyl)benzyl 2-(4-hydroxypiperidine-1-carbonyl)-7,8-dihydro-4H-pyrazolo[1,5-a][1,4]diazepine-5(6H)-carboxylate] | ≥ 7.00 |
| O=C(OCc1cc(C(F)(F)F)cc(C(F)(F)F)c1)N1CCCn2nc(C(=O)N3CCC(F)CC3)cc2C1 [Example 32, 3,5-Bis(trifluoromethyl)benzyl 2-(4-fluoropiperidine-1-carbonyl)-7,8-dihydro-4H-pyrazolo[1,5-a][1,4]diazepine-5(6H)-carboxylate] | ≥ 7.00 |
| O=C(O)C1CC2CCCC(C1)N2C(=O)c1cc2n(n1)CCN(C(=O)OCc1cc(Cl)cc(Cl)c1)C2 (centres unmarked) [Example 41, 9-(5-(((3,5-Dichlorobenzyl)oxy)carbonyl)-4,5,6,7-tetrahydropyrazolo[1,5-a]pyrazine-2-carbonyl)-9-azabicyclo[3.3.1]nonane-3-carboxylic acid] | ≥ 7.00 |
| O=C(O)C1CC2CCCC(C1)N2C(=O)c1cc2n(n1)CCN(C(=O)OCc1cccc(Cl)c1)C2 (centres unmarked) [Example 42, 9-(5-(((3-chlorobenzyl)oxy)carbonyl)-4,5,6,7-tetrahydropyrazolo[1,5-a]pyrazine-2-carbonyl)-9-azabicyclo[3.3.1]nonane-3-carboxylic acid] | ≥ 6.30 |
| O=C(O)C1CC2CCCC(C1)N2C(=O)c1cc2n(n1)CCN(C(=O)OCc1cccc(C(F)(F)F)c1)C2 (centres unmarked) [Example 43, 9-(5-(((3-(Trifluoromethyl)benzyl)oxy)carbonyl)-4,5,6,7-tetrahydropyrazolo[1,5-a]pyrazine-2-carbonyl)-9-azabicyclo[3.3.1]nonane-3-carboxylic acid] | ≥ 7.00 |
| O=C(O)C1CC2CCCC(C1)N2C(=O)c1cc2n(n1)CCN(C(=O)OCc1ccc(C(F)(F)F)cc1)C2 (centres unmarked) [Example 45, 9-(5-(((4-(Trifluoromethyl)benzyl)oxy)carbonyl)-4,5,6,7-tetrahydropyrazolo[1,5-a]pyrazine-2-carbonyl)-9-azabicyclo[3.3.1]nonane-3-carboxylic acid] | ≥ 6.60 |
| O=C(O)C1CC2CCCC(C1)N2C(=O)c1cc2n(n1)CCN(C(=O)OCc1cc(F)cc(Cl)c1)C2 (centres unmarked) [Example 46, 9-(5-(((3-Chloro-5-fluorobenzyl)oxy)carbonyl)-4,5,6,7-tetrahydropyrazolo[1,5-a]pyrazine-2-carbonyl)-9-azabicyclo[3.3.1]nonane-3-carboxylic acid] | ≥ 7.00 |
| O=C(O)C1CC2CCCC(C1)N2C(=O)c1cc2n(n1)CCN(C(=O)OCc1cc(C(F)(F)F)cc(C(F)(F)F)c1)C2 (centres unmarked) [Example 48, 9-(5-(((3,5-Bis(trifluoromethyl)benzyl)oxy)carbonyl)-4,5,6,7-tetrahydropyrazolo[1,5-a]pyrazine-2-carbonyl)-9-azabicyclo[3.3.1]nonane-3-carboxylic acid] | ≥ 7.00 |
| O=C(O)C1CC2CCCC(C1)N2C(=O)c1cc2n(n1)CCCN(C(=O)NCc1cc(Cl)cc(Cl)c1)C2 (centres unmarked) [Example 49, 9-(5-((3,5-Dichlorobenzyl)carbamoyl)-5,6,7,8-tetrahydro-4H-pyrazolo[1,5-a][1,4]diazepine-2-carbonyl)-9-azabicyclo[3.3.1]nonane-3-carboxylic acid] | ≥ 7.00 |
| O=C(O)C1CC2CCCC(C1)N2C(=O)c1cc2n(n1)CCCN(C(=O)OCc1cccc(Cl)c1)C2 (centres unmarked) [Example 57, 9-(5-((3-Chlorobenzyloxy)carbonyl)-5,6,7,8-tetrahydro-4H-pyrazolo[1,5-a][1,4]diazepine-2-carbonyl)-9-aza-bicyclo[3.3.1]nonane-3-carboxylic acid] | ≥ 6.60 |
| O=C(O)C1CC2CCCC(C1)N2C(=O)c1cc2n(n1)CCCN(C(=O)OCc1cccc(C(F)(F)F)c1)C2 (centres unmarked) [Example 58, 9-(5-((3-(Trifluoromethyl)benzyloxy)carbonyl)-5,6,7,8-tetrahydro-4H-pyrazolo[1,5-a][1,4]diazepine-2-carbonyl)-9-aza-bicyclo[3.3.1]nonane-3-carboxylic acid] | ≥ 7.00 |

The remaining lines, values ahead:

| pIC50 | SMILES |
| --- | --- |
| ≥ 7.00 | O=C(OCc1cc(Cl)cc(Cl)c1)N1CCCn2nc(C(=O)N3CCCC3)cc2C1 [Example 18, 3,5-Dichlorobenzyl 2-(pyrrolidine-1-carbonyl)-7,8-dihydro-4H-pyrazolo[1,5-a][1,4]diazepine-5(6H)-carboxylate] |
| ≥ 7.00 | O=C(OCc1cc(Cl)cc(Cl)c1)N1CCCn2nc(C(=O)N3CCCCC3)cc2C1 [Example 19, 3,5-Dichlorobenzyl 2-(piperidine-1-carbonyl)-7,8-dihydro-4H-pyrazolo[1,5-a][1,4]diazepine-5(6H)-carboxylate] |
| ≥ 7.00 | O=C(OCc1cc(Cl)cc(Cl)c1)N1CCCn2nc(C(=O)N3CCC(F)CC3)cc2C1 [Example 20, 3,5-Dichlorobenzyl 2-(4-fluoropiperidine-1-carbonyl)-7,8-dihydro-4H-pyrazolo[1,5-a][1,4]diazepine-5(6H)-carboxylate] |
| ≥ 7.00 | CC1CCN(C(=O)c2cc3n(n2)CCCN(C(=O)OCc2cc(Cl)cc(Cl)c2)C3)CC1 [Example 21, 3,5-Dichlorobenzyl 2-(4-methylpiperidine-1-carbonyl)-7,8-dihydro-4H-pyrazolo[1,5-a][1,4]diazepine-5(6H)-carboxylate] |
| ≥ 7.00 | O=C(OCc1cc(Cl)cc(Cl)c1)N1CCCn2nc(C(=O)N3CCC(C(F)(F)F)CC3)cc2C1 [Example 22, 3,5-Dichlorobenzyl 2-(4-(trifluoromethyl)piperidine-1-carbonyl)-7,8-dihydro-4H-pyrazolo[1,5-a][1,4]diazepine-5(6H)-carboxylate] |
| ≥ 7.00 | O=C(OCc1cc(Cl)cc(Cl)c1)N1CCCn2nc(C(=O)N3CCOCC3)cc2C1 [Example 23, 3,5-Dichlorobenzyl 2-(morpholine-4-carbonyl)-7,8-dihydro-4H-pyrazolo[1,5-a][1,4]diazepine-5(6H)-carboxylate] |
| ≥ 7.00 | O=C(OCc1cc(Cl)cc(Cl)c1)N1CCCn2nc(C(=O)N3CCNCC3)cc2C1 [Example 24, 3,5-Dichlorobenzyl 2-(piperazine-1-carbonyl)-7,8-dihydro-4H-pyrazolo[1,5-a][1,4]diazepine-5(6H)-carboxylate] |
| ≥ 7.00 | CN1CCN(C(=O)c2cc3n(n2)CCCN(C(=O)OCc2cc(Cl)cc(Cl)c2)C3)CC1 [Example 25, 3,5-Dichlorobenzyl 2-(4-methylpiperazine-1-carbonyl)-7,8-dihydro-4H-pyrazolo[1,5-a][1,4]diazepine-5(6H)-carboxylate] |
| ≥ 7.00 | NC1CCN(C(=O)c2cc3n(n2)CCCN(C(=O)OCc2cc(Cl)cc(Cl)c2)C3)CC1 [Example 26, 3,5-Dichlorobenzyl 2-(4-aminopiperidine-1-carbonyl)-7,8-dihydro-4H-pyrazolo[1,5-a][1,4]diazepine-5(6H)-carboxylate] |
| ≥ 7.00 | CNC(=O)c1cc2n(n1)CCCN(C(=O)OCc1cc(Cl)cc(Cl)c1)C2 [Example 27, 3,5-Dichlorobenzyl 2-(methylcarbamoyl)-7,8-dihydro-4H-pyrazolo[1,5-a][1,4]diazepine-5(6H)-carboxylate] |
| ≥ 7.00 | CN(C)C(=O)c1cc2n(n1)CCCN(C(=O)OCc1cc(Cl)cc(Cl)c1)C2 [Example 28, 3,5-Dichlorobenzyl 2-(dimethylcarbamoyl)-7,8-dihydro-4H-pyrazolo[1,5-a][1,4]diazepine-5(6H)-carboxylate] |
| ≥ 7.00 | O=C(OCc1cc(C(F)(F)F)cc(C(F)(F)F)c1)N1CCCn2nc(C(=O)N3CCOCC3)cc2C1 [Example 30, 3,5-Bis(trifluoromethyl)benzyl 2-(morpholine-4-carbonyl)-7,8-dihydro-4H-pyrazolo[1,5-a][1,4]diazepine-5(6H)-carboxylate] |
